Laboratory results from article PMC8411975, “Frag4Lead: growing crystallographic fragment hits by catalog using fragment-guided template docking” (Acta Crystallographica. Section D, Structural Biology, 2021).
Like-named read-outs stand apart in the source and are kept apart here.

Legend:
endothiapepsin (EP) [1] = molecular target: T1, endothiapepsin (EP) (Cryphonectria parasitica, UniProt P11838); set-up: method as in Schiebel, Radeva et al. (2016); conditions: starting fragments, ref Schiebel, Radeva et al. (2016), cited from earlier work; for Kd: read-out: Kd (dissociation constant of the compound from EP)
T1 sequence (P11838 90-419): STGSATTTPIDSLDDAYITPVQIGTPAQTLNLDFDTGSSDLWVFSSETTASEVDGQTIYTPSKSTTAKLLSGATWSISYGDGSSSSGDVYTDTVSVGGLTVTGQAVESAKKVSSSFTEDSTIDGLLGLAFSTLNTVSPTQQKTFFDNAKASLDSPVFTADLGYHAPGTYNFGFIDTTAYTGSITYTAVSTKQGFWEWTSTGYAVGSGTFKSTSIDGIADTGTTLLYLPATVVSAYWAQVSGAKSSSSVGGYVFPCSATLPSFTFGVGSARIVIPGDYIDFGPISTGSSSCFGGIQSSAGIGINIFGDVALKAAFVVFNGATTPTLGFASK

endothiapepsin (EP) [2] = molecular target: T1, endothiapepsin (EP); experiment: Isothermal titration calorimetry (direct or SAP114-displacement titration) against EP; assay type: binding; conditions: for LE (ligand efficiency): from ITC Kd; for Kd: read-out: Kd determined by ITC; for fold affinity increase compared with the starting fragment: ITC Kd of follow-up versus Kd of its starting fragment
Protocol: (§1) ITC experiments were conducted similarly to the procedure desribed by Schiebel, Radeva et al. (2016[▸]) on a MicroCal ITC200 (Malvern) instrument. All buffer solutions for ITC were prepared with the same batch of buffer as used to isolate the batch of EP. Details of the ITC experiments, including the protein and ligand concentrations for each experiment, are listed in Supplementary Table S2. […] All displacement titrations were conducted as single measurements, except for that of FU5-2 (n = 3). The affinities of the stronger binding follow-up ligands were determined by direct ITC titrations. For this, 1 mM compound in a buffer solution consisting of 0.1 M sodium acetate pH 4.6, 3%(v/v) DMSO was titrated into the same buffer additionally containing 50 µM EP to a final stoichiometry of N = 4.
The obtained thermogram peaks of all titrations (Supplementary Fig. S4) were integrated with Nitpic 1.1.8 (Keller et al., 2012[▸]). Subsequently, fitting of a single-site binding-model isotherm was performed using SEDPHAT 10.58d (Houtman et al., 2007[▸]). For the errors of the fit, see Supplementary Table S3. […] During the fit, ΔH was corrected for the heat of dilution, which was individually fitted for each experiment. The stoichiometry was arbitrarily fixed at the anticipated stoichiometry of N = 1 as appropriate for the present low c-value titrations (Rühmann et al., 2015[▸]).
Table S2. Details of ITC measurements.
Follow-Up Titration Concentration Ligand Concentration Final Stoichiometry
Compound Type in Cell Concentration in Syringe (Ligand:Protein)
[a] 0.1% (v/v) Tween 20 in s yringe and cell.
Table S3. Fitting statistics for ITC titration curves
Compound Global reduced chi-square[a] local rmsd[a] (B:A) n[c] Kd [µM] (SD)[d]
Isotherm fitting statistics of ITC data, anal yzed vi a SEDPHAT 10.58d (Houtman et al., 2007).
[a] Goodness of fit p arameters (glob al reduced chi-squ are and wei ghted local rmsd)
[b] Stochiometry o f the ligand protein A and t he ligand B at the infl ection point of the
[c] Number of used data points corresponding to injections of the ITC ex periment

endothiapepsin (EP) [3] = molecular target: T1, endothiapepsin (EP); experiment: Compound soaking into EP crystals and X-ray crystal structure determination; assay type: binding; conditions: soaking at 100 mM or supernatant, 16–22 h
Protocol: The follow-up compounds (a full list, including providers and purities, if known, is given in Supplementary Table S1) were directly dissolved in a soaking solution consisting of 68.2 mM sodium acetate pH 4.6, 68.2 mM ammonium acetate pH 7.0, 16.9%(w/v) PEG 4000, 19.3%(v/v) glycerol, 9.09%(v/v) DMSO to a concentration of 100 mM. For poorly soluble follow-up compounds, crystals were soaked in the supernatant of the solution. After incubation for 16–22 h the crystals were flash-cooled in liquid nitrogen and stored for diffraction data collection.
All data collections were carried out on beamlines BL14.1 and BL14.2 of the BESSY II electron-storage ring operated by the Helmholtz-Zentrum Berlin (HZB; Mueller et al., 2015[▸]). Typically, 360° of data were collected in 0.1° increments using an exposure time of 0.1 s. Data were automatically processed using XDSAPP (Sparta et al., 2016[▸]).
All structures were refined using the automated script fspipeline, which is based on Schiebel, Krimmer et al. (2016[▸]). The starting model was based on PDB entry 4y5l (Schiebel, Krimmer et al., 2016[▸]), from which all ligands and water molecules were removed. Electron-density maps and coordinate files obtained from the automated refinement were inspected manually for each experiment to judge the presence or absence of the expected ligand in the difference electron density. Subsequently, the identified hits were subjected to several rounds of alternating model building in Coot (Emsley et al., 2010[▸]) and refinement in Phenix (Liebschner et al., 2019[▸]) before and after ligand placement. For all follow-up ligands, occupancy refinement was carried out. Refined models and the corresponding electron-density maps were submitted to the PDB under group deposition ID G_1002201.

[4] = Stability of synthesized compound on exposure to air; assay type: physicochemical; conditions: exposed to air at room temperature over a longer period of time
[5] = Solubility noted during ITC sample preparation; assay type: physicochemical; conditions: ITC buffer, 0.1 M sodium acetate pH 4.6, 3%(v/v) DMSO
Protocol: as §1

SMILES	LE (ligand efficiency, binding energy per non-H atom) (endothiapepsin (EP) [1])	Kd (endothiapepsin (EP) [1])	LE (ligand efficiency) (endothiapepsin (EP) [2])	Kd (endothiapepsin (EP) [2])	binding observed in crystal structure after soaking (endothiapepsin (EP) [3])	further results
NC1=NCc2ccccc21 [F005]	0.38 kcal mol^−1 per atom	1700 µM				
NCc1ccc(-c2ccco2)nc1 [F066]	0.35 kcal mol^−1 per atom	400 µM				
NC1=NC(=O)c2ccccc21 [FU5-3]			0.39 kcal mol^−1 per atom	740 µM	retained the binding pose of F005	
N=C(N)SCc1ccc(CSC(=N)N)cc1 [FU290-1]			0.44 kcal mol^−1 per atom	7.2 µM		fold affinity increase compared with the starting fragment (endothiapepsin (EP) [2]): 14 fold
NC1=N/C(=N\Nc2ccccc2)c2ccccc21 [FU5-1]						stability of the compound [4]: decomposition; solubility [5]: poor solubility
CN(C)CCNC(=O)c1cc2n(n1)CCN(c1ccnc(N)n1)C2 [FU58-2]					observed in crystal structures	
Oc1nc(-c2ccco2)ccc1CN(Cc1ccccn1)C1CC1 [FU66-1]			0.21 kcal mol^−1 per atom	160 µM	observed in the crystal structure	
CSc1ccc(CNCCO)cc1 [FU58-3b, 2-{[4-(methylthio)benzyl]amino}ethan-1-ol]					identified in the electron density	
O=C(CN1CCCCC1)Nc1ccc2c(c1)OCO2 [F041]	0.22 kcal mol^−1 per atom	900 µM				
CC(SC(=N)N)c1ccc(Cl)cc1 (stereo not shown) [FU290-2]			0.40 kcal mol^−1 per atom	160 µM		
N=C1N=C(N)c2ccccc21 [FU5-2]			0.37 kcal mol^−1 per atom	970 µM	retained the binding pose of F005	
N=C(N)SCc1ccc(Cl)cc1 [F290]	0.45 kcal mol^−1 per atom	100 µM				
CSc1ccc(CN(CCO)Cc2cc(C)nn2C)cc1 [FU58-3]			0.19 kcal mol^−1 per atom	1040 µM	observed in crystal structures	
Cc1noc(C)c1CN(C)Cc1cc2n(n1)CCN(c1cc(N)ncn1)C2 [FU58-1]			0.17 kcal mol^−1 per atom	450 µM	observed in crystal structures	fold affinity increase compared with the starting fragment (endothiapepsin (EP) [2]): about 20 fold
N=C(N)N/N=C1\N=C(N)c2ccccc21 [FU5-4]			0.31 kcal mol^−1 per atom	400 µM		
Cc1cc(CN)n(C)n1 [F058]	0.31 kcal mol^−1 per atom	8800 µM				
